Tests used:
hBRD4 = molecular target: T1, hBRD4 (Homo sapiens, UniProt O60885); experiment: NanoBRET assay, BRD4 full length; type: cell-based; details: NanoBRET in HEK293 cells, read after overnight incubation; mean ± Standard Deviation
T1 construct: NanLuc-BRD4 Full Length (Promega, 0.0002 μg); host or cells: HEK293
Procedure: (§1) HEK293 cells are seeded at 10×10^6 cells/16 mL in DMEM+10% FBS in a T-75 flask and left to attach for 4-6 hours. Transfection reagents are diluted in Opti-MEM media (no phenol red, no FBS) and 8% Fugene HD containing expression plasmids at a final concentration of the following: 1: Histone H3.3 HaloTag DNA (Promega, 0.02 μg)+NanoLuc-CREBBP-BD (Promega, 0.0002 μg); 2: Histone H3.3 HaloTag DNA (Promega, 0.02 μg)+NanoLuc-EP300-BD (Promega, 0.0002 μg); 3: Histone H4 HaloTag DNA (0.02 μg)+NanLuc-BRD4 Full Length (Promega, 0.0002 μg). The DNA/Fugene mixtures are left at RT for 10 minutes. Transfection mix (800 μL) is added per flask and immediately swirled to cover the cells. The plates are returned to the incubator for overnight transfection. The next day, HaloTag NanoBRET 618 ligand (20 μL/vial of 0.1 mM) is thawed at RT. […]
(§2) Compound is serially diluted and added to 96-well plates (2 10 mM, 3-fold dilutions, 100% DMSO). […] CREBBP/EP300 plates are read after 4 hours incubation and the BRD4 plates are read after overnight incubation. To develop plates for reading, allow all reagents to reach RT before use. […] The plate is shaken for 1 minute to mix and within 10 minutes, read on Envision plate reader with the following settings: Mirror: Luminescence; Emission filter: E600LP; 2nd emission filter: D460/50; Measurement height (mm): 6.5; Measurement time (s): 0.2 second.

NCI-H211 = experiment: Cell growth inhibition assay, NCI-H211; type: cell-based; details: Homo sapiens, 168 h; NCI-H211, 7 days
Procedure: (§3) Tumor cell lines are plated onto 96-well, black wall poly-D-lysine plates (Corning #354640), and incubated at 37° C., 5% CO2 for 18-24 hours. Compound was added at 1:3 dilutions in DMSO and cells were incubated at 37° C., 5% CO2 for 7 days. For adherent cell lines, cells were fixed and stained with propidium iodide and scanned on Acumen (channel 3 setting). For suspension cell lines, cell growth was monitored using Cell Titer-Glo reagent.

EOL-1 = experiment: Cell growth inhibition assay, EOL-1; type: cell-based; details: Homo sapiens, EOL1, 168 h; EOL-1, 7 days
Procedure: as §3

SKNO-1 (AML1-ETO) = experiment: Cell growth inhibition assay, SKNO-1 (AML1-ETO); type: cell-based; details: 168 h, 7 days
Procedure: as §3

OCI-AML2 = experiment: Cell growth inhibition assay, OCI-AML2; type: cell-based; details: Homo sapiens, 168 h; OCI-AML2, 7 days
Procedure: as §3

OCI-AML3 = experiment: Cell growth inhibition assay, OCI-AML3; type: cell-based; details: Homo sapiens, OCI-AML-3, 168 h; OCI-AML3, 7 days
Procedure: as §3

BRD4 (BD1, BD2) = molecular target: T2, BRD4 (BD1, BD2) (Homo sapiens, UniProt O60885); experiment: BromoKdELECT platform assay, BRD4 (BD1, BD2); type: binding; details: 11 points dose-response, mean from a duplicate experiment
T2 construct: BRD4 (Bromodomain 1 (BD1) and Bromodomain 2 (BD2)); purchased DiscoverX (BromoKdELECT service)
From the text: (§4) The purpose of this assay is to evaluate the in vitro target engagement and selectivity (https://www.discoverx.com/services/drug-discovery-development-services/epigenetic-profiling/bromoscan-epigenetic-profiling/bromokdelect). Assay measurement is based on the amount of bromodomain captured in test and control samples by using quantitative PCR technology that detects the DNA label associated to bromodomain. Compounds that bind the bromodomain active site prevents its binding to the immobilized ligand and will reduce the amount of bromodomain captured on the solid support. […] Thus, compound activity is monitored by measuring the amount of bromodomain captured in test versus control samples by using qPCR. Binding affinity for test compound-bromodomain interactions are calculated by measuring the amount of bromodomain captured on the solid support as a function of the test compound concentration.
(§5) Binding affinity (Kd) of the compounds of Examples 1 and 2 towards CREBBP, EP300 and BRD4 (Bromodomain 1 (BD1) and Bromodomain 2 (BD2)) are determined in an 11 points dose-response study (See Table 5). Data is represented as a mean from a duplicate experiment.

BRD4 (BD2) = molecular target: T3, BRD4 (BD2) (Homo sapiens, UniProt O60885); experiment: BromoKdELECT platform assay, BRD4 (BD2); type: binding; details: 11 points dose-response, mean from a duplicate experiment
T3 construct: BRD4 (Bromodomain 1 (BD1) and Bromodomain 2 (BD2)); purchased DiscoverX (BromoKdELECT service)
From the text: as §4, §5

CREBBP = CREBBP (Homo sapiens, UniProt Q92793); experiment: BromoKdELECT platform assay, CREBBP; type: binding; set-up: purchased DiscoverX (BromoKdELECT service); details: 11 points dose-response, mean from a duplicate experiment
Chain of CREBBP (Q92793 1085-1192 limits assumed): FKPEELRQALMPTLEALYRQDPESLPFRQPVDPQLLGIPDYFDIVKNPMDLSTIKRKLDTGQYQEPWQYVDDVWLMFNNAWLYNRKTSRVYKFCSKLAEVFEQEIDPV
From the text: as §4, §5

EP300 = molecular target: T4, EP300 (Homo sapiens, UniProt Q09472); experiment: NanoBRET assay, EP300 bromodomain; type: cell-based; set-up: NanoLuc-EP300-BD (Promega, 0.0002 μg); host or cells: HEK293; details: NanoBRET in HEK293 cells, read after 4 hours incubation; mean ± Standard Deviation
T4 sequence (Q09472 1049-1156 limits assumed): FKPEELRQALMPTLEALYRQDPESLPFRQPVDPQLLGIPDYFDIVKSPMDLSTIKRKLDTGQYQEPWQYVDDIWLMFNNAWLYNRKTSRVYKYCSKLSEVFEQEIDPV
Procedure: as §1, §2

In the case of `CCNC(=O)c1ccc(-c2cc3cccc(-c4nn(C)c5c4CN(C)C(=O)CC5)c3cn2)cn1` [Example 2, 5-[8-(1,5-Dimethyl-6-oxo-7,8-dihydro-4H-pyrazolo[4,3-c]azepin-3-yl)-3-isoquinolyl]-N-ethyl-pyridine-2-carboxamide], the IC50 (hBRD4) is reported as 11800 nM, the IC50 (NCI-H211) is reported as 65 nM and the IC50 (EOL-1) is reported as 1 nM. The IC50 (SKNO-1 (AML1-ETO)) was 18 nM, the IC50 (OCI-AML2) was 207 nM and the IC50 (OCI-AML3) was 226 nM. It also gave a Kd (BRD4 (BD1, BD2)) of 7400 nM, a Kd (BRD4 (BD2)) of 6800 nM and a Kd (CREBBP) of 0.325 nM. For the same compound, the IC50 (EP300) was 26.1 ± 16.5 nM.

Source: patent US20220251096A1, “7,8-DIHYDRO-4H-PYRAZOLO[4,3-c]AZEPINE-6-ONE COMPOUNDS” (Eli Lilly and Company, priority 2019, published 2022)
